Results reported in publication PMC4021201, “Repositioning: the fast track to new anti-malarial medicines?” (Malaria Journal, 2014).
Where “and” joins values, the source holds several entries; their conditions need not be identical. Identical values can stand only once. Like-named read-outs stand apart in the source and are kept apart here.

What was measured:
P. falciparum NF54 = test: SYBR I EC50 determination assay (AstraZeneca); assay type: cell-based; settings: Plasmodium falciparum; P. falciparum strain NF54; 72 h; read-out: Pf EC50
Description: (§1) AZ also used a SYBR® I EC50 determination assay, but with P. falciparum NF54 (MRA-1000, MR4, ATCC, Manassas, VA, USA). The per cent inhibition with respect to the control was plotted against the logarithm of the drug concentration. The curve was fitted by non-linear regression using the sigmoidal dose–response (variable slope) formula to yield the concentration–response curves. The concentration at which 50% inhibition was observed was taken as the EC50 value of the compound. A cytotoxicity assay was also performed by AZ, using the human hepatoma Hep G2 cell line and the per cent inhibition and EC50 values were calculated as described for P. falciparum.
AstraZeneca. This group also used a SYBR® I IC50 determination assay. Compounds were serially diluted in 384 well plates (C3570, Corning Life Sciences). 1 µL of compound was dispensed in a 10 point concentration response format using a Biomek Fx liquid dispenser. To this, 50 µL of P. falciparum NF54 (MRA-1000, MR4, ATCC, Manassas, Virginia) ring stage culture at 2% parasitemia and 0.3 % hematocrit was added using a multidrop dispenser. […] After incubation, the % parasitemia in one of the untreated culture control wells was determined by light microscopy. […] Green fluorescence (485 nm excitation/ 530 nm emission) was measured using the Safire 2 fluorimeter (Tecan Instruments). […]

P. berghei = test: Plasmodium berghei four-day suppression test; assay type: in vivo; settings: 100–200 mg/kg BID oral, four days, BALB/c mice, with oral aminobenzotriazole 100 mg/kg
Procedure: AZ compounds were tested by the company for in vivo efficacy in a standard four-day suppression test using the rodent malaria parasite P. berghei. All animal experimentation protocols were approved by the Institutional Animal Ethics Committee registered with the Government of India (Registration No: 5/1999/CPCSEA). Adult male BALB/c mice (purchased from RCC Laboratories, Hyderabad, India) were used for efficacy studies. Animals were randomly distributed to cages quarantined for one week with veterinary examination and then taken into experimentation. Feed and water were given ad libitum. Briefly, male BALB/c mice were infected intraperitoneally with 2×10^7 infected erythrocytes on day 0. […] On day 3, per cent parasitaemia was estimated microscopically from a Giemsa-stained blood smear. The effect of the test compound on parasite growth was calculated as the difference between the mean value of the control group (taken as 100%) and those of the experimental group and expressed as per cent reduction. Reference anti-malarial compounds (chloroquine and artemisinin) were used as positive controls and the results obtained matched those published in the literature. Pharmacokinetics were analysed in healthy as well as infected mice. Data from healthy mice were used for designing the dosing regimen for the efficacy studies. […]

[1] = system: human hepatoma Hep G2 cell line; test: Hep G2 cytotoxicity assay (AstraZeneca); assay type: cell-based; settings: HepG2, 72 h
Description: as §1
The human hepatoma Hep G2 cell line was used for the cytotoxicity assay. 1 µL of compound was dispensed in a 10 point concentration response format using a Biomek Fx liquid dispenser into white sterile 384-well opaque bottom plates (C3570, Corning Life Sciences). To this, 50 µL of Hep G2 cells at 3000 cells/well was added using a Multidrop dispenser. The plates were then incubated at 37 °C for 72 h in a 5% CO2 incubator. Resazurin at a final concentration of 10 µM was added to all wells and the plates were incubated at room temperature for 4 h. Fluorescence (excitation 535 nm; emission 590 nm) was measured in a Safire 2 fluorimeter. The % inhibition with respect to the control was plotted against the logarithm of the drug concentration. […]

P. falciparum K1 = test: SYBR I dye DNA staining assay (Pfizer), P. falciparum K1; settings: Plasmodium falciparum, K1, read-out: EC50 K1
Procedure: (§2) Cultures of P. falciparum 3D7 and K1 (both from David Baker, LSHTM) were maintained in O+ human erythrocytes (Research Red Cells and Blood Transfusion Service). 384-well assay plates contained 250 nL of compound at a serial dilution of 1:3 in 100% DMSO, starting from 200 µM (in the plate i.e. 20 µM final) and minimum and maximum controls. After addition of 50 μL of infected erythrocytes per well, plates were incubated at 37°C for three days in 5% CO2, 5% O2 and 90% N2. […] Percent anti-malarial activity was calculated relative to the minimum and maximum controls for each of the 11 drug concentrations and EC50 values determined from the resulting data plot.

hERG = hERG (Homo sapiens, UniProt Q12809); test: Independently run hERG assay
Chain of hERG (Q12809 whole entry): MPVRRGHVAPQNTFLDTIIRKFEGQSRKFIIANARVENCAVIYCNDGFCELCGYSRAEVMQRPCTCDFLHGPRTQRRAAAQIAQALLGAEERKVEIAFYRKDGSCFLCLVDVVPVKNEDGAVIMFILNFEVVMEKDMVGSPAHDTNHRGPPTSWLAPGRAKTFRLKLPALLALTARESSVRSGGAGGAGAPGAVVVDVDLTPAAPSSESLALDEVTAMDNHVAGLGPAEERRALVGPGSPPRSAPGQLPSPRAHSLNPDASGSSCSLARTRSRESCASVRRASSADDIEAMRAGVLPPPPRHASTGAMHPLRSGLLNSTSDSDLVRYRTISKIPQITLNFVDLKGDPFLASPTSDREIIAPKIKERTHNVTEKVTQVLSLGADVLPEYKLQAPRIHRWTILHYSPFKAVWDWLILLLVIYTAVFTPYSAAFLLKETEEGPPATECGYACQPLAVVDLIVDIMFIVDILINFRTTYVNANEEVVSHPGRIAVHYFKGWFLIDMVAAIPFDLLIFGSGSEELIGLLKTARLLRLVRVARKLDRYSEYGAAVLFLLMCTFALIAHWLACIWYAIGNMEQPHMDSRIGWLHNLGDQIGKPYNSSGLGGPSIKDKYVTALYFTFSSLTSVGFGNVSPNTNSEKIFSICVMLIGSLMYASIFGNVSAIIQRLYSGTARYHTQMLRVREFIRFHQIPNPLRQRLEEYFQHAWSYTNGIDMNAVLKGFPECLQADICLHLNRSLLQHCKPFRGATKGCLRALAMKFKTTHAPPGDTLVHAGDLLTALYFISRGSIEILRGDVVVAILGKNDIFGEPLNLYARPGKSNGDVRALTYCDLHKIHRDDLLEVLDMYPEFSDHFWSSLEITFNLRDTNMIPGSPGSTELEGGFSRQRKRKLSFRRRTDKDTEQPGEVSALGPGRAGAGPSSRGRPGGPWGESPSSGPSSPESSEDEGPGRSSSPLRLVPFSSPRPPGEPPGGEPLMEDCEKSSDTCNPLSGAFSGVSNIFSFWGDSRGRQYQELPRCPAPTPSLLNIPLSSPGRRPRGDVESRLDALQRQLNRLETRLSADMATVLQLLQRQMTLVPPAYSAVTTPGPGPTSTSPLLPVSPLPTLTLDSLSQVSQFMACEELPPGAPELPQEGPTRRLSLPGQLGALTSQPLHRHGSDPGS

P. falciparum 3D7 = test: SYBR I dye DNA staining assay (Pfizer), P. falciparum 3D7; settings: Plasmodium falciparum, 3D7, read-out: EC50 3D7
Procedure: as §2

[2] = system: P. falciparum Pf3D7^0087/N9; test: Plasmodium falciparum huSCID humanized mouse model, four-day test
Procedure: In vivo testing using this model was performed by GSK at Tres Cantos, against P. falciparum 3D7 (in vivo strain Pf3D7^0087/N9generated by GSK using Pf3D7 obtained from Eduardo Dei-Cas, Institute Pasteur, Lille, France [36]) growing in peripheral blood of female NOD-scid IL-2Rγ^null mice engrafted with human erythrocytes, i e, a ‘humanized’ mouse model, following published protocols [36, 37]. Briefly, animals were infected intravenously with 20×10^6 infected erythrocytes on day 0. […] Dosing was initiated at the maximum tolerated dose in mice on day 3 after infection and continued once daily for four days. Each experimental group was n = 3 mice unless otherwise stated. Control animals received vehicle only and a quality control assay used chloroquine at target doses of 3 mg/kg and 7 mg/kg. Venous blood samples for parasitology (2 μL) were taken at days 3, 5, and 7 after infection. Anti-malarial efficacy was assessed using a standard four-day test (i e, at day 7) and blood parasitaemia was measured by fluorescence-activated cell sorting (FACS) analysis [38]. The limit of detection (per cent of P. falciparum) was 0.01%. The number of parasites ×10^6 cells was recorded and data were analysed by non-linear fitting to a logistic equation of log10 (per cent parasitaemia at day 7 after infection) versus the dose level administered.
Per cent parasitaemia at day 7 after infection in treated versus control animals was analysed using a one factor ANOVA with Tukey’s post-test analysis. […] ED90 was calculated similarly. Analysis was performed using WinNonlin 5.2 and GraphPad Prism 5.0.

[3] = Pharmacokinetics in P. falciparum-infected humanized mice; settings: for Cmax / Tmax: NOD-scid IL-2Rγ^null, mouse, po; for Cmax / Tmax / AUC (0–t): whole blood; for DNAUC(0–t): dose-normalized AUC(0–t); for DNAUC(0–t) / AUC (0–t): mean (SD)
Procedure: The pharmacokinetics of compounds after oral administration was determined concurrently in the same mice used for the therapeutic efficacy assay. Samples were taken at 0.25, 0.5, 1, 3, 6, 8, and 24 hours after the first dose. Compound levels were measured in 25 μL blood samples that were mixed with 25 μL of saponin (0.1% in water) and processed under standard liquid–liquid extraction conditions [39]. Pharmacokinetic parameters were calculated using WinNonlin 5.2 non-compartmental analysis.

[4] = parameters: method as in data provided by Pfizer; settings: human, single doses from 10 mg to 480 mg; ref data provided by Pfizer; cited from earlier work

| EC50 (P. falciparum NF54) [nM] | Compound | growth inhibition in P. berghei-infected mice (P. berghei) | EC50 [1] [nM] | EC50 (P. falciparum K1) [nM] | hERG (hERG) [µM] | EC50 (P. falciparum 3D7) [nM] | ED50 ([2]; Plasmodium falciparum, in Mus musculus, parasitaemia at day 7 after infection, once daily for four days, mean (95% CI)) [mg/kg] | AUCED90 ([2]; blood exposure needed to inhibit parasitaemia at day 7 by 90% vs vehicle) | ED90 ([2]; parasitaemia at day 7 after infection, once daily for four days, mean (95% CI)) | Cmax ([3]; 100 mg/kg) [ng/mL] | Tmax ([3]; 100 mg/kg) [h] | Cmax ([3]; 300 mg/kg) [ng/mL] | Tmax ([3]; 300 mg/kg) [h] | DNAUC(0–t) ([3]; target dose 100 mg/kg oral) | DNAUC(0–t) ([3]; target dose 300 mg/kg oral) | AUC (0–t) ([3]; target dose 100 mg/kg oral) | AUC (0–t) ([3]; target dose 300 mg/kg oral) | Cmax [4] [ng/mL] |
| --- | --- | --- | --- | --- | --- | --- | --- | --- | --- | --- | --- | --- | --- | --- | --- | --- | --- | --- |
| 600 | CC(C)Oc1cc(Nc2nc(N[C@@H](C)c3ccc(F)cn3)ncc2Cl)n[nH]1 [AZ-1] | 50–60% | 10400 | – | – | – | – | – | – | – | – | – | – | – | – | – | – | – |
| – | Cc1nc2cnccc2n1-c1ccc(C(=O)N2CCC(=C3c4ccc(Cl)cc4CCc4cccnc43)CC2)cc1 [UK-112,214] | – | – | 600 | 2.8 | 550 | 80.6 | 111.5 μg · h · mL^−1 · day^−1 and 111.5 (106.6, 121.1) μg · h · mL^−1 · day^−1 | 131.3 mg/kg and 131.3 (112.3, 156.7) mg/kg | 8610 | 4 | 17600 | 3.3 | 0.859 (0.32) μg · h · mL^−1 · day^−1 | 1.03 (0.45) μg · h · mL^−1 · day^−1 | 72.1 (2.7) μg · h · mL | 231 (101) μg · h · mL | 14 to 4145 |
